Experiments:
[1] = system: HBV (HepG2.117 cell line, inducibly HBV producing); experiment: Anti-HBV activity: intracellular HBV DNA by real-time PCR in HepG2.117 cells after 3 days of treatment; type: cell-based, hepatitis B virus; details: Hepatitis B virus, HepG2.117, 72 h, HepG2.117 cells, 3 days of treatment, intracellular HBV DNA by real-time PCR; mean value; read-out: EC50 (μM, mean value)
Outline: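 HepG2.117 cells replicate HBV under Tet-off control, without doxycycline. After induction of replication, cells were treated with serially diluted compound for 3 days, and intracellular HBV DNA was then quantified by real-time PCR with an HBV-specific primer set and probe.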

[2] = in vitro; type: cell-based; details: human, HepG2 or HepG2.117 cells, 3-days incubation (unmarked values), ATPlite; mean value
Outline: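 Luminescent ATP quantitation served as the viability endpoint following a 3- or 4-day incubation with test compounds.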

Row | SMILES | EC50 [1] [µM] | CC50 at 3 days [2] [µM]
1 | CCC1Cc2c(nc(NC(C)C)n(-c3ccc(S(C)(=O)=O)cc3)c2=O)CN1C(=O)c1ccc(Cl)c(Cl)c1 (stereo not drawn) [Compound C158, 7-(3,4-dichlorobenzoyl)-6-ethyl-3-[4-(methanesulfonyl)phenyl]-2-[(propan-2-yl)amino]-5,6,7,8-tetrahydropyrido[3,4-d]pyrimidin-4(3H)-one] | 1.14 | > 50
2 | COc1ccc(CNc2nc3c(c(=O)n2-c2ccc(N4CCOCC4C(=O)O)cc2)CCN(C(=O)c2ccc(Cl)c(Cl)c2)C3)cc1 (stereo not drawn) [Compound C159, 4-{4-[7-(3,4-dichlorobenzoyl)-2-{[(4-methoxyphenyl)methyl]amino}-4-oxo-5,6,7,8-tetrahydropyrido[3,4-d]pyrimidin-3(4H)-yl]phenyl}morpholine-3-carboxylic acid] | 23.1 | > 50
3 | COc1ccc(CNc2nc3c(c(=O)n2-c2ccc(-c4ncco4)cc2)CCN(C(=O)c2ccc(Cl)c(Cl)c2)C3)cc1 [Compound C160, 7-(3,4-dichlorobenzoyl)-2-{[(4-methoxyphenyl)methyl]amino}-3-[4-(1,3-oxazol-2-yl)phenyl]-5,6,7,8-tetrahydropyrido[3,4-d]pyrimidin-4(3H)-one] | 0.54 | > 50
4 | COc1ccc(CNc2nc3c(c(=O)n2-c2ccc(N4CCC(NC(=O)OC(C)(C)C)C4)cc2)CCN(C(=O)c2ccc(Cl)c(Cl)c2)C3)cc1 (stereo not drawn) [Compound C161, tert-butyl (1-{4-[7-(3,4-dichlorobenzoyl)-2-{[(4-methoxyphenyl)methyl]amino}-4-oxo-5,6,7,8-tetrahydropyrido[3,4-d]pyrimidin-3(4H)-yl]phenyl}pyrrolidin-3-yl)carbamate] | 2.4 | > 50
5 | CC(C)Nc1nc2c(c(=O)n1-c1ccc(-c3ncco3)cc1)CCN(C(=O)c1ccc(Cl)c(Cl)c1)C2 [Compound C162, 7-(3,4-dichlorobenzoyl)-3-[4-(1,3-oxazol-2-yl)phenyl]-2-[(propan-2-yl)amino]-5,6,7,8-tetrahydropyrido[3,4-d]pyrimidin-4(3H)-one] | 0.47 | > 50
6 | CC(C)Nc1nc2c(c(=O)n1-c1ccc(S(C)(=O)=O)cc1)CCN(C(=O)c1nc3ccc(Cl)cc3[nH]1)C2 [Compound C163, 7-(6-chloro-1H-benzimidazole-2-carbonyl)-3-[4-(methanesulfonyl)phenyl]-2-[(propan-2-yl)amino]-5,6,7,8-tetrahydropyrido[3,4-d]pyrimidin-4(3H)-one] | 4.45 | > 50
7 | CC(C)Nc1nc2c(c(=O)n1-c1ccc(S(C)(=O)=O)cc1)CCN(C(=O)c1ccc3sccc3c1)C2 [Compound C164, 7-(1-benzothiophene-5-carbonyl)-3-[4-(methanesulfonyl)phenyl]-2-[(propan-2-yl)amino]-5,6,7,8-tetrahydropyrido[3,4-d]pyrimidin-4(3H)-one] | 0.24 | > 50
8 | CC(C)Nc1nc2c(c(=O)n1-c1ccc(S(C)(=O)=O)cc1)CCN(C(=O)c1cc3cc(F)c(F)cc3[nH]1)C2 [Compound C165, 7-(5,6-difluoro-1H-indole-2-carbonyl)-3-[4-(methanesulfonyl)phenyl]-2-[(propan-2-yl)amino]-5,6,7,8-tetrahydropyrido[3,4-d]pyrimidin-4(3H)-one] | 0.05 | > 50
9 | CC(C)Nc1nc2c(c(=O)n1-c1ccc(-n3cccn3)cc1)C[C@@H](C)N(C(=O)c1ccc(Cl)c(Cl)c1)C2 [Compound C166, (6R)-7-(3,4-dichlorobenzoyl)-6-methyl-2-[(propan-2-yl)amino]-3-[4-(1H-pyrazol-1-yl)phenyl]-5,6,7,8-tetrahydropyrido[3,4-d]pyrimidin-4(3H)-one] | 0.11 | > 50
10 | CC(C)Nc1nc2c(c(=O)n1-c1ccc(C(=O)NC3CC3)cc1)C[C@@H](C)N(C(=O)c1ccc(Cl)c(Cl)c1)C2 [Compound C167, N-cyclopropyl-4-[(6R)-7-(3,4-dichlorobenzoyl)-6-methyl-4-oxo-2-[(propan-2-yl)amino]-5,6,7,8-tetrahydropyrido[3,4-d]pyrimidin-3(4H)-yl]benzamide] | 0.06 | > 50
11 | CC(C)Nc1nc2c(c(=O)n1-c1ccc(C(=O)N3CCOCC3)cc1)C[C@@H](C)N(C(=O)c1ccc(Cl)c(Cl)c1)C2 [Compound C168, (6R)-7-(3,4-dichlorobenzoyl)-6-methyl-3-[4-(morpholine-4-carbonyl)phenyl]-2-[(propan-2-yl)amino]-5,6,7,8-tetrahydropyrido[3,4-d]pyrimidin-4(3H)-one] | 0.24 | > 50
12 | CC(C)Nc1nc2c(c(=O)n1-c1ccc(C(=O)N3CCN(C)CC3)cc1)C[C@@H](C)N(C(=O)c1ccc(Cl)c(Cl)c1)C2 [Compound C169, (6R)-7-(3,4-dichlorobenzoyl)-6-methyl-3-[4-(4-methylpiperazine-1-carbonyl)phenyl]-2-[(propan-2-yl)amino]-5,6,7,8-tetrahydropyrido[3,4-d]pyrimidin-4(3H)-one] | 0.15 | 30.7
13 | CC(C)Nc1nc2c(c(=O)n1-c1ccc(-c3cscn3)cc1)CCN(C(=O)c1ccc(Cl)c(Cl)c1)C2 [Compound C170, 7-(3,4-dichlorobenzoyl)-2-[(propan-2-yl)amino]-3-[4-(1,3-thiazol-4-yl)phenyl]-5,6,7,8-tetrahydropyrido[3,4-d]pyrimidin-4(3H)-one] | 0.53 | > 50
14 | CC(C)Nc1nc2c(c(=O)n1-c1ccc(-c3ncc(F)cc3F)cc1)CCN(C(=O)c1ccc(Cl)c(Cl)c1)C2 [Compound C171, 7-(3,4-dichlorobenzoyl)-3-[4-(3,5-difluoropyridin-2-yl)phenyl]-2-[(propan-2-yl)amino]-5,6,7,8-tetrahydropyrido[3,4-d]pyrimidin-4(3H)-one] | 3.95 | 4.6
15 | COc1cccnc1-c1ccc(-n2c(NC(C)C)nc3c(c2=O)CCN(C(=O)c2ccc(Cl)c(Cl)c2)C3)cc1 [Compound C172, 7-(3,4-dichlorobenzoyl)-3-[4-(3-methoxypyridin-2-yl)phenyl]-2-[(propan-2-yl)amino]-5,6,7,8-tetrahydropyrido[3,4-d]pyrimidin-4(3H)-one] | 1.66 | 5.3
16 | CC(C)Nc1nc2c(c(=O)n1-c1ccc(-c3cccc(N4CCOCC4)n3)cc1)CCN(C(=O)c1ccc(Cl)c(Cl)c1)C2 [Compound C173, 7-(3,4-dichlorobenzoyl)-3-{4-[6-(morpholin-4-yl)pyridin-2-yl]phenyl}-2-[(propan-2-yl)amino]-5,6,7,8-tetrahydropyrido[3,4-d]pyrimidin-4(3H)-one] | 0.88 | 7.8
17 | CC(C)Nc1nc2c(c(=O)n1-c1ccc(-c3nccn3C)cc1)CCN(C(=O)c1ccc(Cl)c(Cl)c1)C2 [Compound C174, 7-(3,4-dichlorobenzoyl)-3-[4-(1-methyl-1H-imidazol-2-yl)phenyl]-2-[(propan-2-yl)amino]-5,6,7,8-tetrahydropyrido[3,4-d]pyrimidin-4(3H)-one] | 0.42 | 6.8
18 | CC(C)Nc1nc2c(c(=O)n1-c1ccc(-c3ccco3)cc1)CCN(C(=O)c1ccc(Cl)c(Cl)c1)C2 [Compound C175, 7-(3,4-dichlorobenzoyl)-3-[4-(furan-2-yl)phenyl]-2-[(propan-2-yl)amino]-5,6,7,8-tetrahydropyrido[3,4-d]pyrimidin-4(3H)-one] | 1.25 | 17
19 | CC(C)Nc1nc2c(c(=O)n1-c1ccc(-c3cnccn3)cc1)CCN(C(=O)c1ccc(Cl)c(Cl)c1)C2 [Compound C176, 7-(3,4-dichlorobenzoyl)-2-[(propan-2-yl)amino]-3-[4-(pyrazin-2-yl)phenyl]-5,6,7,8-tetrahydropyrido[3,4-d]pyrimidin-4(3H)-one] | 0.57 | 8.7
20 | CC(C)Nc1nc2c(c(=O)n1-c1ccc(-c3ccnnc3)cc1)CCN(C(=O)c1ccc(Cl)c(Cl)c1)C2 [Compound C177, 7-(3,4-dichlorobenzoyl)-2-[(propan-2-yl)amino]-3-[4-(pyridazin-4-yl)phenyl]-5,6,7,8-tetrahydropyrido[3,4-d]pyrimidin-4(3H)-one] | 0.26 | 18.2
21 | CC(C)NC(=O)c1ccc(-n2c(NC(C)C)nc3c(c2=O)C[C@@H](C)N(C(=O)c2ccc(Cl)c(Cl)c2)C3)cc1 [Compound C178, 4-[(6R)-7-(3,4-dichlorobenzoyl)-6-methyl-4-oxo-2-[(propan-2-yl)amino]-5,6,7,8-tetrahydropyrido[3,4-d]pyrimidin-3(4H)-yl]-N-(propan-2-yl)benzamide] | 0.04 | > 50
22 | COC(=O)C1COCCN1c1ccc(-n2c(NC(C)C)nc3c(c2=O)CCN(C(=O)c2ccc(Cl)c(Cl)c2)C3)cc1 (stereo not drawn) [Compound C179, methyl 4-{4-[7-(3,4-dichlorobenzoyl)-4-oxo-2-[(propan-2-yl)amino]-5,6,7,8-tetrahydropyrido[3,4-d]pyrimidin-3(4H)-yl]phenyl}morpholine-3-carboxylate] | 0.72 | 19.3
23 | CNC1CCN(c2ccc(-n3c(NC(C)C)nc4c(c3=O)CCN(C(=O)c3ccc(Cl)c(Cl)c3)C4)cc2)C1 (stereo not drawn) [Compound C180, 7-(3,4-dichlorobenzoyl)-3-{4-[3-(methylamino)pyrrolidin-1-yl]phenyl}-2-[(propan-2-yl)amino]-5,6,7,8-tetrahydropyrido[3,4-d]pyrimidin-4(3H)-one] | 0.72 | 5.6
24 | CC(C)Nc1nc2c(c(=O)n1-c1ccc(S(C)(=O)=O)cc1)CCN(C(=O)c1cc(Cl)c(Cl)s1)C2 [Compound C181, 7-(4,5-dichlorothiophene-2-carbonyl)-3-[4-(methanesulfonyl)phenyl]-2-[(propan-2-yl)amino]-5,6,7,8-tetrahydropyrido[3,4-d]pyrimidin-4(3H)-one] | 2.56 | > 50

— patent publication US20230091047A1 (priority 2019, published 2023)
